Assays:
[1] = tested on: collagen type II induced arthritis; assay: Collagen-induced arthritis, Example 2B: histology of PIP joints; assay type: in vivo, mouse; details: 2 mg/kg body weight i.p.
Procedure: (§1) Male DBA/1 mice were immunized intradermally with 100 μg of bovine type II collagen emulsified in complete Freund's adjuvant (Difco Laboratories, East Molsey, UK). The mean day of onset of arthritis was approximately one month after immunization. After the onset of clinically evident arthritis (erythema and/or swelling), mice were injected intraperitoneally with therapeutic agents. Arthritis was monitored for clinical score and paw swelling (measured with calipers) for 10 days, after which the mice were sacrificed and joints were processed for histology. Sera were collected for analysis on day 10. Therapeutic agents were administered on day 1 (onset), day 4 and day 7. The therapeutic agents included TNF receptor/IgG fusion protein (p55-sf2), anti-TNF antibody, anti-CD4 antibody, and methylprednisolone acetate.
Using the Experimental Procedure described above, groups of mice were subjected to treatment with TNF receptor/IgG protein (2 μg) (18 mice), TNF receptor/IgG protein (20 μg) (18 mice), TNF receptor/IgG protein (100 μg) (12 mice), anti-TNF monoclonal antibody (mAb) (300 μg) (17 mice), methylprednisolone acetate (6 mice), an irrelevant human IgG1 monoclonal antibody (mAb) (6 mice), or saline (control). […]

[2] = tested on: collagen type II induced arthritis; assay: Collagen-induced arthritis, Example 2B: limb involvement; assay type: in vivo, mouse; details: 2 mg/kg body weight i.p.
Procedure: as §1
Using the Experimental Procedure described above, groups of mice were subjected to treatment with TNF receptor/IgG protein (2 μg) (18 mice), TNF receptor/IgG protein (20 μg) (18 mice), TNF receptor/IgG protein (100 μg) (12 mice), anti-TNF monoclonal antibody (mAb) (300 μg) (17 mice), methylprednisolone acetate (6 mice), an irrelevant human IgG1 monoclonal antibody (mAb) (6 mice), or saline (control). The TNF receptor/IgG fusion protein, herein referred to as p55-sf2, (Butler et al., Cytokine (in press): (1994), was provided by Centocor, Inc., Malvern Pa.; it is dimeric and consists of the human p55 TNF receptor (extracellular domains) fused to a partial J sequence followed by the whole of the constant region of the hunan IgG1 heavy chain, itself associated with the constant region of a kappa light chain. The […] antibody was TN3-19.12, a neutralizing hamster IgG1 anti-TNFα/β monoclonal antibody (Sheehan, K. C. et al., J. Immunology 142:3884-3893 (1989)), and was provided by R. Schreiber, Washington University Medical School (St. Louis, Mo., USA), in conjunction with Celltech (Slough, UK). […]

CC(=O)OCC(=O)[C@@]1(O)CC[C@H]2[C@@H]3C[C@H](C)C4=CC(=O)C=C[C@]4(C)[C@H]3[C@@H](O)C[C@@]21C [Methylprednisolone acetate, methylprednisolone acetate]
PIP Joints with Erosions (%) [1]: (67%) | PIP Joints with Erosions (number/total) [1]: 4/6 | Increase (%) in limbs affected [2]: 33% | Limbs Affected (mean ± SEM) Day 1 ([2]; Day 1): 1.00 ± 0.00 | Limbs Affected (mean ± SEM) Day 10 ([2]; Day 10): 1.50 ± 0.22

Source: US20020068057A1, “TREATMENT OF AUTOIMMUNE AND INFLAMMATORY DISORDERS” (priority 1996, published 2002)
